In PMC9863607, “Combined Use of Antimicrobial Peptides with Antiseptics against Multidrug-Resistant Bacteria: Pros and Cons” (Pharmaceutics, 2023):

Legend:
E. coli ML-35p = experiment: Broth microdilution assay (MIC, planktonic bacteria); assay type: cell-based, Escherichia coli; conditions: antiseptics and surfactants; MHB, overnight 37 °C; median of 3–4 independent experiments; prontosan as polyhexanide
Description: (§1) In this regard the test plates were preincubated for 1 h at 37 °C with 0.1% bovine serum albumin (BSA) in distilled water before use. Bacteria were grown overnight at 37 °C with shaking in 2.1% Müller–Hinton broth (MHB), and then a small aliquot was transferred into the fresh portion of the same medium for another 2–3 h on the day of the experiment to provide us with the log phase bacterial suspension. Concentration of bacterial cells in suspension was evaluated based on absorbance at 620 nm and diluted down to 1 × 10^6 CFU/mL with MHB. Equal volumes of the prepared bacterial suspension in MHB and two-fold serial dilutions of the antimicrobials in 10 mM sodium phosphate (Na-P) buffer (pH 7.4) with 0.1% BSA were mixed and incubated overnight at 37 °C. The lowest concentration where no bacterial growth was observed the next day under visual examination was considered the minimal inhibitory concentration. The test was repeated at least three times, and the final MIC value was established as a median result. Each experiment was conducted in triplicates. Terasaki microplates (10 µL end volume, V-shaped bottom; Sarstedt, Nümbrecht, Germany) were used.

E. coli ESBL 521/17 = experiment: microbe, parasite or virus in culture; assay type: cell-based, Escherichia coli; conditions: antiseptics and surfactants; MHB, overnight 37 °C; median of 3–4 independent experiments; prontosan as polyhexanide
Description: as §1

A. baumannii 7226/16 = experiment: microbe, parasite or virus in culture; assay type: cell-based, Acinetobacter baumannii; conditions: antiseptics and surfactants; MHB, overnight 37 °C; median of 3–4 independent experiments; prontosan as polyhexanide
Description: as §1

P. aeruginosa MDR 522/17 = experiment: microbe, parasite or virus in culture; assay type: cell-based, Pseudomonas aeruginosa; conditions: antiseptics and surfactants; MHB, overnight 37 °C; median of 3–4 independent experiments; prontosan as polyhexanide
Description: as §1

[1] = test system: K. pneumoniae ESBL 344/17; experiment: microbe, parasite or virus in culture; assay type: cell-based, Klebsiella pneumoniae; conditions: antiseptics and surfactants; MHB, overnight 37 °C; median of 3–4 independent experiments; prontosan as polyhexanide
Description: as §1

S. aureus 1399/17 = experiment: microbe, parasite or virus in culture; assay type: cell-based, Staphylococcus aureus; conditions: antiseptics and surfactants; MHB, overnight 37 °C; median of 3–4 independent experiments; prontosan as polyhexanide
Description: as §1

[2] = test system: drug-resistant clinical isolates and E. coli ML-35p; experiment: Checkerboard titration, all tested bacteria together; assay type: cell-based; conditions: planktonic bacteria
Description: The mode of interaction of the test substances while applied in combinations was analyzed based on the calculation of the fractional (or combination) indices—the mathematical “embodiment” of the Loewe additivity paradigm that we used for the classification of combination effects in this study. As synergy is generally defined as a greater than additive effect, and antagonism as a lower than additive effect, the main problem is to establish a reference level for this additive effect. The Loewe approach uses the idea of the self-additivity of an individual substance; thus, the individual activity may be regarded as an additivity control. To identify additivity, synergy, or antagonism in Loewe terms, one should choose a fixed level of the studied effect and then compare the doses of individual substances required to reach this level, with the fractional doses of the substances in combination providing the same level of the effect.
In the case of activity testing of combinations toward planktonic bacteria, a checkerboard titration scheme was used to create an array of mixtures of the two substances (A and B) in various concentrations by diluting the first one two-fold row-by-row and the second one column-by-column. The left column and the bottom row contained the dilutions of only one substance (A or B) to control their individual activity levels in every experiment. […]

bacteria = conditions: cited from earlier work
Description: Among surfactants, as was expected based on the literature data, sodium lauroyl sarcosinate was the most universally active toward bacteria. […] This is especially interesting in light of the fact that prontosan has an amidopopyl betaine in its composition alongside the poly ...

Row | Compound | MIC (E. coli ML-35p) | MIC (E. coli ESBL 521/17) | MIC (A. baumannii 7226/16) | MIC (P. aeruginosa MDR 522/17) | MIC [1] | MIC (S. aureus 1399/17) | Type of interaction with AMPs, antibacterial effect of combinations [2] | MICs by disk-diffusion method (bacteria)
1 | [Na+].[O-]Cl [Sodium hypochlorite] | 5000 µg/mL | 5000 µg/mL | 2500 µg/mL | 5000 µg/mL | 5000 µg/mL | 10,000 µg/mL | antagonistic interaction | –
2 | CCCCCCCCCCCC(=O)N(C)CC(=O)[O-].[Na+] [Sodium lauroyl sarcosinate] | 6250 µg/mL | 12,500 µg/mL | 25,000 µg/mL | 50,000 µg/mL | 12,500 µg/mL | >50,000 µg/mL | antagonistic interaction | 37.5 to 300 mg/mL
